The text below walks through data of patent US20200078307A1, “POROUS SILICA PARTICLES FOR USE IN A COMPRESSED PHARMACEUTICAL DOSAGE FORM” (Nanologica AB, priority 2018, published 2020).

Values after ≈ are worked out from the molar mass of the structure shown. Like-named read-outs stand apart in the source and are kept apart here. A value given as a limit tells only on which side of the number the result lay.

Usually solubility stands for the dissolved amount per volume that the medium holds.

The nature of series [1]: Release kinetics of melatonin, USP Apparatus 2 dissolution testing. The class given is physicochemical. As to conditions: after 20 minutes; 500 ml buffer pH 6.8, 50 rpm, 37° C., 5 mg melatonin. As to the method:
The release kinetics of melatonin was monitored using a USP Apparatus 2 dissolution testing system. The release was performed in 500 ml buffer at pH 6.8 (reflecting the pH in the oral cavity, typically in the range of pH 6.7 to 7.3) at 50 rpm stirring rate and 37° C. The dose in the dissolution tests was equivalent to 5 mg of melatonin. Melatonin was bought from PureBulk, Inc. USA. The dosage form with melatonin was compared to reference product from CVS Health, USA using the technology mentioned in U.S. Pat. No. 9,381,190 Other ingredients in the formulation include Microcrystalline cellulose (MCC) and Low-Substituted Hydroxypropyl Cellulose (L-HPC) Mannitol and magnesium stearate.

Series [2] can be described thus: HPLC stability of melatonin during loading and storage. Type of series: physicochemical. The conditions noted are these: during loading and after storage at 4° C.
The conditions of series [3]: cited from earlier work.

In the case of `COc1ccc2[nH]cc(CCNC(C)=O)c2c1` [melatonin], in series [1], the “dissolution (melatonin released)” value came out at 93%. For the same compound, the “stability (HPLC)” value in series [2] is “no degradation”.

Turning to `CCN(CC)CCNC(=O)c1cc(Cl)c(N)cc1OC` [metoclopramide], the results for the solubility in series [3] (in buffer at pH 6.8) and in series [3] (in water) were 10000 µg/mL (≈ 33.4 mM) and greater than 6000 µg/mL, respectively.
